Test results taken from paper PMC3969223, “Characterization of WZ4003 and HTH-01-015 as selective inhibitors of the LKB1-tumour-suppressor-activated NUAK kinases” (Biochemical Journal, 2013).

Legend:
U2OS cells [1] = assay: 3D Matrigel Transwell invasion assay; format: cell-based; conditions: 10 μM, 16 h, 10% FBS chemoattractant
Procedure: The ability of U2OS cells to invade in the presence or absence of 10 μM HTH-01-015 or WZ4003 was tested in a growth-factor-reduced Matrigel™ invasion chamber (BD Biosciences, catalogue number 354483) as described previously. Cells were serum-deprived for 2 h, detached using cell-dissociation buffer (Gibco), and 2.5×10^5 cells suspended in DMEM containing 1% (w/v) BSA were added to the upper chambers in triplicate and chemoattractant [DMEM containing 10% (v/v) FBS] was added to the lower wells. The chambers were kept at 37°C in 5% CO2 for 16 h in the presence or absence of 10 μM HTH-01-015 or WZ4003 both in the upper and lower wells. Non-invaded cells were removed from the upper face of the filters by scraping, and cells that had migrated to the lower face of the filters were fixed and stained with Reastain Quick-Diff kit (Reagena) and images (×10 magnification) were captured. For cell invasion assays, statistical significance was assessed using GraphPad Prism 5.0.

U2OS cells [2] = assay: Cell proliferation assay (CellTiter 96 AQueous); format: cell-based; conditions: 10 μM, 5 days; same extent as shRNA-mediated NUAK1 knockdown
Procedure: Cell proliferation assays were carried out colorimetrically in 96-well plates using the CellTiter 96® AQueous Non-Radioactive Cell Proliferation Assay kit (Promega) following the manufacturer's protocol. Initially, 2000 cells per well were seeded for U2OS cells and 3000 cells per well were seeded for MEFs. The proliferation assays were carried out over 5 days in the presence or absence of 10 μM HTH-01-015 or WZ4003.

CLK2 = CLK2 (Homo sapiens, UniProt P49760); assay: Kinase profiling; format: biochemical; conditions: 0.1 or 1 μM inhibitor; mean of triplicate
In short: (§1)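 Screened in vitro against a 140-kinase panel with inhibitor at 0.1 or 1 μM. Values are percent of kinase activity remaining relative to DMSO control reactions, averaged from triplicate reactions ±S.D.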

WNK1 = WNK1 (Homo sapiens, UniProt Q9H4A3); assay: Kinase profiling; format: biochemical; conditions: 0.1 or 1 μM inhibitor; mean of triplicate
In short: as §1

TTK = TTK (Homo sapiens, UniProt P33981); assay: Kinase profiling; format: biochemical; conditions: 0.1 or 1 μM inhibitor; mean of triplicate
Chain of TTK (P33981 whole entry): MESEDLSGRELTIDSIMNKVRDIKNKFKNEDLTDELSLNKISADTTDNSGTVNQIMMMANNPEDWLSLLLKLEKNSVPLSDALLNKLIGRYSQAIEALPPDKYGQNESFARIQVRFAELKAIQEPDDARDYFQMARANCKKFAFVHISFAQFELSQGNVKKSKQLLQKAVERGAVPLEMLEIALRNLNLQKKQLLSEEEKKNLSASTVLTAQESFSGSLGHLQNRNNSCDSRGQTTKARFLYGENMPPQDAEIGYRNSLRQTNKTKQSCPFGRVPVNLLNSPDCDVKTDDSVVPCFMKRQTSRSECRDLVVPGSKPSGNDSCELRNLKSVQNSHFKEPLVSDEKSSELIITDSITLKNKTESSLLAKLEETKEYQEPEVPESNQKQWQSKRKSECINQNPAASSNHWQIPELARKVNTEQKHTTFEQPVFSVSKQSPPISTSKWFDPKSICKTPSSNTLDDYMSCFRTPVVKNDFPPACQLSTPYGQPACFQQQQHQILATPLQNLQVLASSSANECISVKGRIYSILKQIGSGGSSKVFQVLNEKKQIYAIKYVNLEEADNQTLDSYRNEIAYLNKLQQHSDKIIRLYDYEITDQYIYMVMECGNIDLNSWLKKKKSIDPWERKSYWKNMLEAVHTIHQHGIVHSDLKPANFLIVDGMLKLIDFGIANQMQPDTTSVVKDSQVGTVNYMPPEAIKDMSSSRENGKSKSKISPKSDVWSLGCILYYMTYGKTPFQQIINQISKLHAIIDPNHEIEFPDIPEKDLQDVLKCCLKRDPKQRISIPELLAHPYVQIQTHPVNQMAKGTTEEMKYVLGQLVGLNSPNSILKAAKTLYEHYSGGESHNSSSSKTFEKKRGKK
In short: as §1

STK33 = STK33 (Homo sapiens, UniProt Q9BYT3); assay: Kinase profiling; format: biochemical; conditions: 0.1 or 1 μM inhibitor; mean of triplicate
Chain of STK33 (Q9BYT3 whole entry): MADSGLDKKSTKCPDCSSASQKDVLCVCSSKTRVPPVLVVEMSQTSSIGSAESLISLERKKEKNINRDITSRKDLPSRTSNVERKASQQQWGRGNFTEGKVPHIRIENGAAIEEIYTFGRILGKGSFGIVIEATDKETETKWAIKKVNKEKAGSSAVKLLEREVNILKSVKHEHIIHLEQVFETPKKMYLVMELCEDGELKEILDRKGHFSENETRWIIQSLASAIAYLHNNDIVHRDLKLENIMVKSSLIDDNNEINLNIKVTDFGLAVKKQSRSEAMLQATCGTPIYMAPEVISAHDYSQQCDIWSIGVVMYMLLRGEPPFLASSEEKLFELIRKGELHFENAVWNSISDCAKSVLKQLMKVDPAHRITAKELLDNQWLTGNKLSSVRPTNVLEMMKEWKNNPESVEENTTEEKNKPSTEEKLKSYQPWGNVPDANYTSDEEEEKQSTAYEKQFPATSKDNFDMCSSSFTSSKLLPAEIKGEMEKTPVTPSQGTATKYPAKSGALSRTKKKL
In short: as §1

DDR2 = DDR2 (Homo sapiens, UniProt Q16832); assay: Kinase profiling; format: biochemical; conditions: 0.1 or 1 μM inhibitor; mean of triplicate
Chain of DDR2 (Q16832 22-855): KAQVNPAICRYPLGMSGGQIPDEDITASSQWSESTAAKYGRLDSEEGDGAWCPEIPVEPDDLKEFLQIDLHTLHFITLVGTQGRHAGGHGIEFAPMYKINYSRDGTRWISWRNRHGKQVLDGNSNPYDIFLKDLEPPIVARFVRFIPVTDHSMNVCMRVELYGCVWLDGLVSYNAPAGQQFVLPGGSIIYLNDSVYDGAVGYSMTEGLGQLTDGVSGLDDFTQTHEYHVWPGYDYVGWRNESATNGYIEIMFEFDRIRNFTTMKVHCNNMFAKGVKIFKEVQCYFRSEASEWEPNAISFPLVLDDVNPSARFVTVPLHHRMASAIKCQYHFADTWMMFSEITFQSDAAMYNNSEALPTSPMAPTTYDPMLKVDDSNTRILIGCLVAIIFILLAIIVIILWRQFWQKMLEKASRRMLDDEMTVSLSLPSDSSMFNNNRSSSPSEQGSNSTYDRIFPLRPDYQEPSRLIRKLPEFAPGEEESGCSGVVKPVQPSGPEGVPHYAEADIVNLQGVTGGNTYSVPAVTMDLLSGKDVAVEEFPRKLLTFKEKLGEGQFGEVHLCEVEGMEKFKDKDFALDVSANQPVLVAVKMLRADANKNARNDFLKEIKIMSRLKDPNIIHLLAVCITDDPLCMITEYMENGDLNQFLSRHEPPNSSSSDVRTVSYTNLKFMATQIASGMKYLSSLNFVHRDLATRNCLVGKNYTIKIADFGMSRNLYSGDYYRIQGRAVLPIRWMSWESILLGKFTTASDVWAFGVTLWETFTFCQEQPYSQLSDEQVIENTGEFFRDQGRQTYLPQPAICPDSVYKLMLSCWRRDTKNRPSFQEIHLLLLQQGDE
In short: as §1

PLK1 = PLK1 (Homo sapiens, UniProt P53350); assay: Kinase profiling; format: biochemical; conditions: 0.1 or 1 μM inhibitor; mean of triplicate
Chain of PLK1 (P53350 whole entry): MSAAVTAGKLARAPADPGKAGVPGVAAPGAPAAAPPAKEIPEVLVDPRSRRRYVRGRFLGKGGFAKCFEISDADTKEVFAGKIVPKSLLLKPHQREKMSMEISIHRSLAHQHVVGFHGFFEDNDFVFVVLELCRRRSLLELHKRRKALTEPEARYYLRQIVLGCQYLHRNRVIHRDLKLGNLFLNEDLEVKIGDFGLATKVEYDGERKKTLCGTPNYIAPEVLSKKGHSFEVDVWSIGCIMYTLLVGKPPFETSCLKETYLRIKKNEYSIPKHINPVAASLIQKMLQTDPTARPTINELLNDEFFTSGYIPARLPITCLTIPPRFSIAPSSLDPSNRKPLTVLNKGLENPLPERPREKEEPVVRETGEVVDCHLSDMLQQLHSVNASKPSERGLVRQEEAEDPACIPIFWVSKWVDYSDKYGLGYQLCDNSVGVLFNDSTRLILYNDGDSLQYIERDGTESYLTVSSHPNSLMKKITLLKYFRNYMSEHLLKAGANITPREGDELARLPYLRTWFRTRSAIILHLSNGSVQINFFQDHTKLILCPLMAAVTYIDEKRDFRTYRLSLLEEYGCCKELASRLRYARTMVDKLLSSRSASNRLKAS

MSK1 = MSK1 (Homo sapiens, UniProt O75582); assay: Kinase profiling; format: biochemical; conditions: 0.1 or 1 μM inhibitor; mean of triplicate
Chain of MSK1 (O75582 whole entry): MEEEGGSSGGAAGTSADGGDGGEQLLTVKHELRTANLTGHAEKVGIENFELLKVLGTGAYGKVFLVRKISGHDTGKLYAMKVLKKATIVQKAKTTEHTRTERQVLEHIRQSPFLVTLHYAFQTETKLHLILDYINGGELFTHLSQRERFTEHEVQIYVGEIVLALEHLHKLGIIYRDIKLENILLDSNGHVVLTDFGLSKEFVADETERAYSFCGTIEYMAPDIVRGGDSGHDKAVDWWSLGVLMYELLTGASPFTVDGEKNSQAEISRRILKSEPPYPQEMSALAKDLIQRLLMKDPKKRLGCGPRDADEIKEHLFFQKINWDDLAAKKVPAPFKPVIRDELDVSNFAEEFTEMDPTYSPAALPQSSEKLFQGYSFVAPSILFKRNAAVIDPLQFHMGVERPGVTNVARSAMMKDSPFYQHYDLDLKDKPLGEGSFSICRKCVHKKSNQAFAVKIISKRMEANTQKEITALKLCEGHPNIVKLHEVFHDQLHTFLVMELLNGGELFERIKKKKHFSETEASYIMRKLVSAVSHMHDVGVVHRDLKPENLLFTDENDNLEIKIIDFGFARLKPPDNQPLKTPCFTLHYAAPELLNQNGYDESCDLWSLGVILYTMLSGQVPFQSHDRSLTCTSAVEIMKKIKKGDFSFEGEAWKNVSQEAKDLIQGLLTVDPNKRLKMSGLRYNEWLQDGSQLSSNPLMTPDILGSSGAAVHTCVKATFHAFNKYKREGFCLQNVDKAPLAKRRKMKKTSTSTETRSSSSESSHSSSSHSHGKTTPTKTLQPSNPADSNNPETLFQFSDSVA
In short: as §1

CAMK1 = CAMK1 (Homo sapiens, UniProt Q14012); assay: Kinase profiling; format: biochemical; conditions: 0.1 or 1 μM inhibitor; mean of triplicate
In short: as §1

MST2 = MST2 (Homo sapiens, UniProt Q13188); assay: Kinase profiling; format: biochemical; conditions: 0.1 or 1 μM inhibitor; mean of triplicate
Chain of MST2 (Q13188 whole entry): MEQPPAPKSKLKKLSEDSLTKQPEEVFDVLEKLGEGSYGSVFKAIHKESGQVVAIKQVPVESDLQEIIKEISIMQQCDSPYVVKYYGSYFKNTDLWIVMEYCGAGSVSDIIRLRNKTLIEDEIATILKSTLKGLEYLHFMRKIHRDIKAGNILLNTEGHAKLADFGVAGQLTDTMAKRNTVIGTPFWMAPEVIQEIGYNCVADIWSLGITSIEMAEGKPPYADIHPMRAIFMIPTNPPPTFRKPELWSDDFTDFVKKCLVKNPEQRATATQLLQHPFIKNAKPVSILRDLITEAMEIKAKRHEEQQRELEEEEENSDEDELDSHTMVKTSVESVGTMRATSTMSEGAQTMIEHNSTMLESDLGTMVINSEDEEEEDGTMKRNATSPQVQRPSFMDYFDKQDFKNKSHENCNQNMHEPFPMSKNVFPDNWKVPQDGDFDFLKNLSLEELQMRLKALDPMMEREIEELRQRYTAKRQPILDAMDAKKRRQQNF
In short: as §1

DYRK3 = DYRK3 (Homo sapiens, UniProt O43781); assay: Kinase profiling; format: biochemical; conditions: 0.1 or 1 μM inhibitor; mean of triplicate
Chain of DYRK3 (O43781 whole entry): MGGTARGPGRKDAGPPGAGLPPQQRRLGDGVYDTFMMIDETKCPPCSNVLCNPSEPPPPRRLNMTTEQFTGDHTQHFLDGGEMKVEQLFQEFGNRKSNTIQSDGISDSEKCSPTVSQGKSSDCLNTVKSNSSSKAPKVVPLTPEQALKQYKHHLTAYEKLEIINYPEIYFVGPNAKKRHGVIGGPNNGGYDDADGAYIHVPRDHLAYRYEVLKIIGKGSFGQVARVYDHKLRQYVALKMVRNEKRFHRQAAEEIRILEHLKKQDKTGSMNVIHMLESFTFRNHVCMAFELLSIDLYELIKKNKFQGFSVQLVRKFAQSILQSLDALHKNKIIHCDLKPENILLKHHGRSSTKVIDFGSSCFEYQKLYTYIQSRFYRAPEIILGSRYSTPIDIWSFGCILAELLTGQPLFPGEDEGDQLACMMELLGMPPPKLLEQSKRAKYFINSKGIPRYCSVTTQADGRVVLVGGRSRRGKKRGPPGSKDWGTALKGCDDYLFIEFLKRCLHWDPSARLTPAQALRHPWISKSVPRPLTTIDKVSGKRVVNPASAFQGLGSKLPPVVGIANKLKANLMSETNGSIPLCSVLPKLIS
In short: as §1

[3] = tested on: MYPT1 Ser445 phosphorylation; assay: MYPT1 Ser445 phosphorylation, HEK-293 Flp/In T-Rex overexpressing HA-NUAK1[A195T]; format: cell-based, human; conditions: cells expressing drug-resistant NUAK1[A195T]; 30 μM
Procedure: HEK (human embryonic kidney)-293 and U2OS cells were cultured in DMEM (Dulbecco's modified Eagle's medium) supplemented with 10% FBS, 2 mM glutamine and 1×antibacterial/antimycotic solution. NUAK1^+/+ and NUAK1^−/− MEFs were cultured in DMEM supplemented with 10% (v/v) FBS and 2 mM glutamine, 1×antibacterial/antimycotic solution, 1% (v/v) non-essential amino acids and 1% (v/v) sodium pyruvate. HEK-293 Flp/In T-Rex cell lines were cultured in DMEM supplemented with 10% (v/v) FBS and 2 mM glutamine, 1×antibacterial/antimycotic solution, 100 μg/ml hygromycin and 15 μg/ml blasticidin. Supplementing the culture medium with 0.1 μg/ml doxycycline for 16–24 h induced protein expression in the HEK-293 Flp/In T-Rex cells. Cell counting was carried out using Invitrogen Countess following the manufacturer's protocol. A cell-detachment assay was carried out on HEK-293 cells using PBS-EDTA-based cell dissociation buffer as described previously. An inhibitor dose-dependence assay was carried out by treating the cells with various concentrations of the inhibitors as indicated in the Figure legends. The inhibitors were dissolved in DMSO and the total concentration of DMSO in the culture media never exceeded 1%. Transient transfections of HEK-293 cells were carried out using PEI [24]. Stable transfections were carried out in HEK-293 Flp/In T-Rex cells (Invitrogen) following the manufacturer's protocol. […]

| Structure (SMILES) | Invasiveness of U2OS cells (in words) (U2OS cells [1]) | Proliferation of U2OS cells (in words) (U2OS cells [2]) | CLK2 activity, percentage of DMSO control (CLK2) | WNK1 activity, percentage of DMSO control (WNK1) | TTK activity, percentage of DMSO control (TTK) | STK33 activity, percentage of DMSO control (STK33) | DDR2 activity, percentage of DMSO control (DDR2) | PLK1 activity, percentage of DMSO control (PLK1) | MSK1 activity, percentage of DMSO control (MSK1) | CAMK1 activity, percentage of DMSO control (CAMK1) | MST2 activity, percentage of DMSO control (MST2) | DYRK3 activity, percentage of DMSO control (DYRK3) | Block of MYPT1 Ser445 phosphorylation (in words) [3] |
| --- | --- | --- | --- | --- | --- | --- | --- | --- | --- | --- | --- | --- | --- |
| Cc1nc(Nc2cnn(C3CCNCC3)c2)nc2c1N(C)C(=O)c1cc3ccccc3cc1N2C [HTH-01-015] | markedly inhibited the invasiveness | suppressed proliferation | 54 percentage | 99 percentage | 118 percentage | 93 percentage | 91 percentage | 98 percentage | 111 percentage | 92 percentage | 118 percentage | 98 percentage | failed to block |
| CCC(=O)Nc1cccc(Oc2nc(Nc3ccc(N4CCN(C)CC4)cc3OC)ncc2Cl)c1 [WZ4003] | markedly inhibited the invasiveness | suppressed proliferation | – | – | – | – | – | – | – | – | – | – | failed to block |
